Data from US5436254A, “Carbostyril derivatives” (Otsuka Pharmaceutical Company, Ltd., priority 1989, dated 1995).

These compounds were tested against V1 receptor (Rattus norvegicus, UniProt P30560) (assay: biochemical). Details: not given.
Format: binding

Chain of V1 receptor (P30560 whole entry): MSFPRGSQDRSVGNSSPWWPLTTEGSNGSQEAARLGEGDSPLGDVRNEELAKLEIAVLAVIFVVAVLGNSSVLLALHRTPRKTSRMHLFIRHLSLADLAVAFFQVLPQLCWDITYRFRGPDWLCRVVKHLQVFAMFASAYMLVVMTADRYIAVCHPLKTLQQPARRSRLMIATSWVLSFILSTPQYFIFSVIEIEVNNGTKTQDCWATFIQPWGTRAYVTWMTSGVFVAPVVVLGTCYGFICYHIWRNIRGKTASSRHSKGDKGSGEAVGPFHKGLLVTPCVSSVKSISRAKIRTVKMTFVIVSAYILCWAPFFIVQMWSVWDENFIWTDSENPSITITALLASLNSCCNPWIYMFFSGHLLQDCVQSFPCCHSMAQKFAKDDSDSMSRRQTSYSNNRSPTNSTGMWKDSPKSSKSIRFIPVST

First: Cn1ccnc1SCCCCCOc1ccc(C(=O)N2CCC(N3C(=O)CCc4ccccc43)CC2)cc1 [Example 278, 1-{1-(4-[5-(1-Methyl-2-imidazolylthio)pentyloxy]benzoyl)-4-piperidinyl}-3,4-dihydrocarbostyril]
Second: Nc1ccc(SCCCCCOc2ccc(C(=O)N3CCC(N4C(=O)CCc5ccccc54)CC3)cc2)cc1 [Example 284, 1-{1-(4-[5-(4-Aminophenylthio)pentyloxy]benzoyl)-4-piperidinyl}-3,4-dihydrocarbostyril]
The IC50 of the first is 3.6-fold lower: 110 nM for the first, 400 nM for the second.

`CC(C)NCC(O)CCCCOc1ccc(C(=O)N2CCC(N3C(=O)CCc4ccccc43)CC2)cc1` (centres unmarked) [Example 217, 1-{1-[4-(5-Hydroxy-6-isopropylaminohexyloxy)benzoyl]-4-piperidinyl}-3,4-dihydrocarbostyril] and `CN(C)CC(O)CCCCCCOc1ccc(C(=O)N2CCC(N3C(=O)CCc4ccccc43)CC2)cc1` (centres unmarked) [Example 187, 1-{1-[4-(7-Hydroxy-8-dimethylaminooctyloxy)benzoyl]-4-piperidinyl}-3,4-dihydrocarbostyril] are within 1.5-fold of each other in IC50: 53 nM for the first, 40 nM for the second.

Going from `O=C(c1ccc(OCc2ccccc2)cc1)N1CCC(N2C(=O)CCc3ccccc32)CC1` [Example 97, 1-[1-(4-Benzyloxybenzoyl)-4-piperidinyl]-3,4-dihydrocarbostyril] to `O=C(c1ccc(OCCCN2CCN(Cc3ccccc3)CC2)cc1)N1CCC(N2C(=O)CCc3ccccc32)CC1` [Example 133, 1-[1-{4-[3-(4-Benzyl-1-piperazinyl)propoxy]benzoyl}-4-piperidinyl]-3,4-dihydrocarbostyril.dioxalate], the IC50 falls from 1100 nM to 330 nM (3.3-fold).

`N[C@@H](Cc1ccc(O)cc1)C(=O)NCCCOc1ccc(C(=O)N2CCC(N3C(=O)CCc4ccccc43)CC2)cc1` [Example 223, 1-[1-{4-[3-(S)-Tyrosylaminopropoxy]benzoyl}-4-piperidinyl]-3,4-dihydrocarbostyril] and `CC(=O)N[C@H](Cc1c[nH]cn1)C(=O)NCCCOc1ccc(C(=O)N2CCC(N3C(=O)CCc4ccccc43)CC2)cc1` [Example 208, 1-{1-[4-(3-[2-(R)-Acetylamino-2-(4(1H)-imidazolyl)methylacetylamino]propoxy)benzoyl]-4-piperidinyl}-3,4-dihydrocarbostyril] are within 1.5-fold of each other in IC50: 72 nM for the first, 100 nM for the second.

Going from `CCN(CC)CC(O)CCCCOc1ccc(C(=O)N2CCC(N3C(=O)CCc4ccc(F)cc43)CC2)c(OC)c1` (centres unmarked) [Example 185, 7-Fluoro-1-{1-[4-(5-Hydroxy-6-diethylaminohexyloxy)-2-methoxybenzoyl]-4-piperidinyl}-3,4-dihydrocarbostyril] to `CCOc1ccc(C(=O)N2CCC(N3C(=O)CCc4ccccc43)CC2)c(OC)c1` [Example 52, 1-[1-(2-Methoxy-4-ethoxybenzoyl)-4-piperidinyl]-3,4-dihydrocarbostyril], the IC50 rises from 10 nM to 80 nM (8-fold). The first is the more potent here.

Compared with `CN(C)CCNC(=O)CCCCCOc1ccc(C(=O)N2CCC(N3C(=O)CCc4ccccc43)CC2)cc1` [Example 199, 1-[1-[4-(5-(2-Dimethylaminoethyl)aminocarbonylpentyloxy)benzoyl]-4-piperidinyl}-3,4-dihydrocarbostyril], `CCOC(=O)CNC(=O)CCCCCOc1ccc(C(=O)N2CCC(N3C(=O)CCc4ccccc43)CC2)cc1` [Example 13, 1-{1-[4-(5-Ethoxycarbonylmethylaminocarbonylpentyloxy)benzoyl]-4-piperidinyl}-3,4-dihydrocarbostyril] is 5.1-fold higher in IC50: 55 nM for the first, 280 nM for the second.

`O=C(CCCCCOc1ccc(C(=O)N2CCC(N3C(=O)CCc4ccccc43)CC2)cc1)N1CCN(Cc2ccccc2)CC1` [Example 269, 1-{1-(4-[5-(4-Benzyl-1-piperazinylcarbonyl)pentyloxy]benzoyl)-4-piperidinyl}-3,4-dihydrocarbostyril] and `CC(=O)N1CCN(CCCCOc2ccc(C(=O)N3CCC(N4C(=O)CCc5ccccc54)CC3)cc2)CC1` [Example 162, 1-{1-[4-[4-(4-Acetyl-1-piperazinyl)butoxy]benzoyl]-4-piperidinyl}-3,4-dihydrocarbostyril] are within 1.5-fold of each other in IC50: 160 nM for the first, 110 nM for the second.

Going from `COc1ccc(C(=O)N2CCC(N3C(=O)CCc4ccccc43)CC2)cc1[N+](=O)[O-]` [Example 119, 1-[1-(3-Nitro-4-methoxybenzoyl)-4-piperidinyl]-3,4-dihydrocarbostyril] to `COc1cc(SC)ccc1C(=O)N1CCC(N2C(=O)CCc3ccccc32)CC1` [Example 53, 1-[1-(2-Methoxy-4-methylthiobenzoyl)-4-piperidinyl]-3,4-dihydrocarbostyril], the IC50 falls from 1400 nM to 80 nM (18-fold). The second is the more potent here.

First: O=C1CCc2ccccc2N1C1CCN(C(=O)C23CC4CC(CC(C4)C2)C3)CC1 [Example 83, 1-(1-Tricyclo[3.3.1.1^3,7]decanylcarbonyl-4-piperidinyl)-3,4-dihydrocarbostyril]
Second: O=C(c1ccc(C2CCCCC2)cc1)N1CCC(N2C(=O)CCc3ccccc32)CC1 [Example 112, 1-[1-(4-Cyclohexylbenzoyl)-4-piperidinyl]-3,4-dihydrocarbostyril]
The IC50 of the first is 1.9-fold lower: 500 nM for the first, 970 nM for the second. The first is the more potent here.

Compared with `CN1CCN(CC(=O)NCCCCCOc2ccc(C(=O)N3CCC(N4C(=O)CCc5ccccc54)CC3)cc2)CC1` [Example 254, 1-{1-(4-[5-(2-(4-Methyl-1-piperazinyl)acetylamino)pentyloxy]benzoyl)-4-piperidinyl}-3,4-dihydrocarbostyril], `O=C(c1ccc(OCCCCN2CCNCC2)cc1)N1CCC(N2C(=O)CCc3ccccc32)CC1` [Example 157, 1-{1-[4-[4-(1-Piperazinyl)butoxy]benzoyl]-4-piperidinyl}-3,4-dihydrocarbostyril.dioxalate] is 1.5-fold higher in IC50: 60 nM for the first, 90 nM for the second. The first is the more potent here.

First: COC(=O)[C@H](CCCCN)NC(=O)CCCCCOc1ccc(C(=O)N2CCC(N3C(=O)CCc4ccccc43)CC2)cc1 [Example 166, 1-{1-[4-{5-[5-Amino-1-(S)-methoxycarbonyl]pentylaminocarbonylpentyloxy}benzoyl]-4-piperidinyl}-3,4-dihydrocarbostyril]
Second: COC(=O)[C@H](CCCCNC(=O)OCc1ccccc1)NC(=O)CCCCCOc1ccc(C(=O)N2CCC(N3C(=O)CCc4ccccc43)CC2)cc1 [Example 165, 1-{1-[4-{5-[(5-Benzyloxycarbonylamino)-1-(S)-methoxycarbonyl]pentylaminocarbonylpentyloxy}benzoyl]-4-piperidinyl}-3,4-dihydrocarbostyril]
The IC50 of the first is 12-fold lower: 44 nM for the first, 540 nM for the second. The first is the more potent here.

Compared with `O=C(c1ccc(OCCCCCNS(=O)(=O)c2ccc([N+](=O)[O-])cc2)cc1)N1CCC(N2C(=O)CCc3ccccc32)CC1` [Example 263, 1-{1-(4-[5-(4-Nitrophenylsulfonyl)aminopentyloxy]benzoyl)-4-piperidinyl}-3,4-dihydrocarbostyril], `O=C(c1ccc(OCCCCC[S+]([O-])c2ncccn2)cc1)N1CCC(N2C(=O)CCc3ccccc32)CC1` (centres unmarked) [Example 280, 1-{1-(4-[5-(2-Pyrimidylsufinyl)pentyloxy]benzoyl)-4-piperidinyl}-3,4-dihydrocarbostyril] is 4.1-fold lower in IC50: 360 nM for the first, 87 nM for the second.

`O=C(c1ccc(N2CCCC2)cc1)N1CCC(N2C(=O)CCc3ccccc32)CC1` [Example 91, 1-{1-[4-(1-Pyrrolidinyl)benzoyl]-4-piperidinyl}-3,4-dihydrocarbostyril] and `CC(=O)c1ccc(C(=O)N2CCC(N3C(=O)CCc4ccccc43)CC2)cc1` [Example 107, 1-[1-(4-Acetylbenzoyl)-4-piperidinyl]-3,4-dihydrocarbostyril] are within 1.5-fold of each other in IC50: 720 nM for the first, 750 nM for the second.

Going from `NC(=O)[C@@H]1CCCN1CC(O)CCCCOc1ccc(C(=O)N2CCC(N3C(=O)CCc4ccccc43)CC2)cc1` (some centres unmarked) [Example 302] to `O=C(c1ccc(OCCCCC(O)CN2CCNCC2)cc1)N1CCC(N2C(=O)CCc3ccccc32)CC1` (centres unmarked) [Example 173, 1-{1-[4-(5-Hydroxy-6-(1-piperazinyl)hexyloxy]benzoyl]-4-piperidinyl}-3,4-dihydrocarbostyril.dioxalate], the IC50 falls from 88 nM to 39 nM (2.3-fold). The second is the more potent here.

Going from `O=C(c1ccc(C=CCCO)cc1)N1CCC(N2C(=O)CCc3ccccc32)CC1` [Example 122, 1-{1-[4-(4-Hydroxy-1-butenyl)benzoyl]-4-piperidinyl}-3,4-dihydrocarbostyril] to `CN(CCO)CCCCCOc1ccc(C(=O)N2CCC(N3C(=O)CCc4ccccc43)CC2)cc1` [Example 244, 1-{1-(4-[5-(N-(2-Hydroxyethyl)-N-methylamino)pentyloxy]benzoyl)-4-piperidinyl}-3,4-dihydrocarbostyril], the IC50 falls from 710 nM to 34 nM (21-fold).

`O=C(c1ccc(OCCCC(O)CN2CCOCC2)cc1)N1CCC(N2C(=O)CCc3ccccc32)CC1` (centres unmarked) [Example 189, 1-{1-[4-(4-Hydroxy-5-morpholinopentyloxy)benzoyl]-4-piperidinyl}-3,4-dihydrocarbostyril] and `NC(=O)OCCCCCCOc1ccc(C(=O)N2CCC(N3C(=O)CCc4ccccc43)CC2)cc1` [Example 212, 1-{1-[4-(6-Carbamoyloxyhexyloxy)benzoyl]-4-piperidinyl}-3,4-dihydrocarbostyril] are within 1.5-fold of each other in IC50: 130 nM for the first, 160 nM for the second.

Going from `COc1ccc(C(=O)N2CCC(N3C(=O)CCc4ccccc43)CC2)c(NC(=O)OCc2ccccc2)c1` [Example 103, 1-[1-(4-Methoxy-2-benzyloxycarbonylaminobenzoyl)-4-piperidinyl]-3,4-dihydrocarbostyril] to `COc1ccc(C(=O)N2CCC(N3C(=O)CCc4ccccc43)CC2)c(OCCCO)c1` [Example 63, 1-{1-[2-(3-Hydroxypropoxy)-4-methoxybenzoyl]-piperidinyl}-3,4-dihydrocarbostyril], the IC50 falls from 700 nM to 270 nM (2.6-fold). The second is the more potent here.

`C=CCOc1cc(OC)ccc1C(=O)N1CCC(N2C(=O)CCc3ccccc32)CC1` [Example 62, 1-[1-(2-Allyloxy-4-methoxybenzoyl)-4-piperidinyl]-3,4-dihydrocarbostyril] and `CCOc1ccc(C(=O)N2CCC(N3C(=O)CCc4cc(F)c(F)cc43)CC2)c(OC)c1` [Example 120, 6,7-Difluoro-1-[1-(2-methoxy-4-ethoxybenzoyl)-4-piperidinyl]-3,4-dihydrocarbostyril] are within 1.5-fold of each other in IC50: 150 nM for the first, 200 nM for the second.

Compound `O=C(NCCCC[C@H](NC(=O)OCc1ccccc1)C(=O)NCCCOc1ccc(C(=O)N2CCC(N3C(=O)CCc4ccccc43)CC2)cc1)OCc1ccccc1` [Example 222, 1-[1-{4-[3-(S)-{N,N'76434 -Di(benzyloxycarbonyl)lysyl)aminopropoxy]benzoyl}-4-piperidinyl]-3,4-dihydrocarbostyril] has an IC50 of 650 nM.

Same assay, conditions: read-out: IC50

`CCOc1ccc(C(=O)N2CCC(n3c(=O)ccc4c(F)cc(F)cc43)CC2)c(OC)c1` [Example 175, 5,7-Difluoro-1-[1-(2-Methoxy-4-ethoxybenzoyl)-4-piperidinyl]carbostyril] showed an IC50 of 320 nM.
